We go through seven compounds from ChEMBL document CHEMBL1255547, “Preparation and characterization of novel 4-bromo-3,4-dimethyl-1-phenyl-2-phospholene 1-oxide and the analogous phosphorus heterocycles or phospha sugars” (Bioorg Med Chem Lett, 2010).

In general, pIC50 refers to the negative decadic logarithm of the IC50, by convention in mol/L. A low value points to a large IC50.

Molecules are shown by their SMILES. pIC50: −log10 of the molar value.

The test system of the experiment is U-937. Put plainly: Cytotoxicity against human U937 cells after 48 hrs by MTT assat. Format: functional, cell-based. The note with it: U-937, 48 h.

In the case of `O=P1(c2ccccc2)C=CCC1` (configuration not stated), the pIC50 is less than 3.00.
`CC1=CP(=O)(c2ccccc2)CC1` (configuration not stated) showed a pIC50 of 3.05.
In the case of `CC1=CP(=O)(c2ccccc2)CC1C` (configuration not stated), the pIC50 is 3.46. Compared with the last compound, the pIC50 is 0.41 log units higher.
Take `O=P1(c2ccccc2)C=CC(Br)C1` (configuration not stated): the negative logarithm of the IC50 (pIC50) was less than 3.00.
As for `CC1=CP(=O)(c2ccccc2)CC1Br` (configuration not stated), the pIC50 is 4.06.
On to `CC1=CP(=O)(c2ccccc2)CC1(C)Br` (configuration not stated), for which the pIC50 is 5.25.
Then `CCC1=CP(=O)(c2ccccc2)CC1Br` (configuration not stated), with less than 3.00.
